Reference: paper PMC11776485 (Virulence, 2025)

Molecular target: T1, MoOxdC (Pyricularia oryzae, UniProt G4NLF1)
T1 construct: gene MGG_14061
Conditions: 50 mM citrate pH 4.0, 37 °C, 30 min; 0.2 mL of 8 mM oxalic acid in 1.5 mL; no added metal

T1 sequence (G4NLF1 1-500 limits assumed): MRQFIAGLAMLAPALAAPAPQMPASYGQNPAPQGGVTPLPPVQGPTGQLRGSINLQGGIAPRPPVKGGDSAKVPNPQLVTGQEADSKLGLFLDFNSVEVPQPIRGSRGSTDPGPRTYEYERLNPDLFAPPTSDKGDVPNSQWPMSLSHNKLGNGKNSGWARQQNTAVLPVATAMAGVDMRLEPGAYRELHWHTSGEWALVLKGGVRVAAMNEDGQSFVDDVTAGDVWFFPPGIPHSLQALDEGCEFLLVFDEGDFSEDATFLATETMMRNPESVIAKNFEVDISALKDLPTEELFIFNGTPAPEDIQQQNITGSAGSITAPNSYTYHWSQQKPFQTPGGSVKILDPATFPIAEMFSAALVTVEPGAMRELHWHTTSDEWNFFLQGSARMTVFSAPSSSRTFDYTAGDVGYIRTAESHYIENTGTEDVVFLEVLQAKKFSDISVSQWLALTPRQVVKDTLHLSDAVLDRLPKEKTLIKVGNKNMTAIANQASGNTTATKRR

O=C(O)C(=O)O [oxalic acid]
residual oxalic acid by Fe(III)-sulfosalicylate absorbance at 510 nm; formic aci: The oxalate decarboxylase activity of the purified recombinant MoOxdC protein was analyzed.
